How the values were obtained:
P450 BM3 (CYP102A1) [1] = target: P450 BM3 (CYP102A1) (Priestia megaterium, UniProt P14779); assay: biochemical
P450 BM3 (CYP102A1) [2] = target: P450 BM3 (CYP102A1) (Priestia megaterium, UniProt P14779, N320L/T412V/T437A); assay: biochemical
Sequence of P450 BM3 (CYP102A1) (Priestia megaterium, UniProt P14779, N320L/T412V/T437A) (P14779 whole entry N320L/T412V/T437A): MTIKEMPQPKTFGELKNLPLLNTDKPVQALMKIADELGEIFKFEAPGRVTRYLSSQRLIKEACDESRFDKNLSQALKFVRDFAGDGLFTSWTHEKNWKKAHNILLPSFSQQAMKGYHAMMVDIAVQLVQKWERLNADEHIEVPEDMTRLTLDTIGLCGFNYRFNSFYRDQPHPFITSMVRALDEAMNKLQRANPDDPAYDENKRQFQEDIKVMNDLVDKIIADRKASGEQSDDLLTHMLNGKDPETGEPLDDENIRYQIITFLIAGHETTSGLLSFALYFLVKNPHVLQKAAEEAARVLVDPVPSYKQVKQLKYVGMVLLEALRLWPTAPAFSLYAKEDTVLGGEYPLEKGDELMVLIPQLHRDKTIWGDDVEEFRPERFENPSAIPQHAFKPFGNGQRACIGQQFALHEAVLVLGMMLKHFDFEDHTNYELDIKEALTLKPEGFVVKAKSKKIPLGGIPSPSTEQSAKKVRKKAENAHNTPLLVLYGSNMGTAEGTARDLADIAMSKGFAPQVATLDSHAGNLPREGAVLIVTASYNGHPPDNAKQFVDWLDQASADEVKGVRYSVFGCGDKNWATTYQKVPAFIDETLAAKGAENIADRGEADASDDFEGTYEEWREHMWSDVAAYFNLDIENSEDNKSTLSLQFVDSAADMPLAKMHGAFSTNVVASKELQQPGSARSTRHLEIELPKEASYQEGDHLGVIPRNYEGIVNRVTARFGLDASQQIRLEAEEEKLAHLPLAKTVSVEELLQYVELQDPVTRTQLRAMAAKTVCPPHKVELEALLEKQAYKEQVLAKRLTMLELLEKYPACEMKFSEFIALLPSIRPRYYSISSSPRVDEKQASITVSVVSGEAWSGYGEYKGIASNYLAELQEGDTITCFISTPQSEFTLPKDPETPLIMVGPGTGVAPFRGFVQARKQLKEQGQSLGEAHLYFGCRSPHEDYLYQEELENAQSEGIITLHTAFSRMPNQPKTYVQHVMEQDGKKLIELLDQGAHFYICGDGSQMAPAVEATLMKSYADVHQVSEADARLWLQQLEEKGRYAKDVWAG

Sequence of P450 BM3 (CYP102A1) (Priestia megaterium, UniProt P14779) (P14779 whole entry): as the sequence (P14779 whole entry N320L/T412V/T437A) above, with L320N, V412T, A437T counted along it

Kd (P450 BM3 (CYP102A1) [1]): 6.85 ± 0.079 mM
Kd (P450 BM3 (CYP102A1) [2]): 6.263 ± 0.047 mM
SMILES: CC1=CC(=O)CC(C)(C)C1 [α-isophorone]

From PMC9302676 (Chemsuschem, 2022)
